Where a name gives a salt, the structure may show the parent alone.
Columns and labels:
[1] = tested on: HiBiT-tagged MYB protein; assay: HiBiT protein abundance assay, MYB (K562 HiBiT knock-in cells); assay type: cell-based, human; settings: 24 hours
Method in brief: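 K562 cells with endogenous HiBiT knock-in tag, 10-point 3-fold dilutions (top 10 μM final, ≤0.25% DMSO), 24 h at 37 °C. Lytic Nano-Glo HiBiT luminescence, normalized to DMSO and unmodified K562 baselines; IC50 is concentration giving 50% protein abundance from four-parameter fit.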

[2] = tested on: SMN2 mRNA; assay: Gene panel canonical junction qPCR assay, SMN2 CJ mRNA decrease; assay type: cell-based, human; settings: Homo sapiens, canonical junction qPCR, read-out: SMN2 IC50 (decrease in CJ mRNA levels)
Method in brief: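 A673 or K562 cells were treated with compound, and lysates underwent cDNA synthesis and qPCR with a CY5 5′-nuclease probe or primer spanning the canonical exon junction. ΔCt versus GAPDH, GUSB or PPIA was normalized to DMSO (2^(−ΔΔCt)), converted to percentage response and fitted four-parameter logistic for IC50.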

Row | SMILES | IC50 [1] [nM] | IC50 [2] [nM]
1 | Cc1cn2cc(NC(=O)c3ccc(C4CCNC5(CC5)C4)c4nccnc34)cc(F)c2n1 (stereo not drawn) [Compound 375] | 100 to 1000 | < 100
2 | Cc1cn2nc(NC(=O)c3ccc(N4CCNCC4)c4ccnnc34)cc(C)c2n1 [Compound 100] | 100 to 1000 | 100 to 1000
3 | Cc1cn2cc(NC(=O)c3ccc(N4C[C@H](C)NC5(CC5)C4)c4nccnc34)cc(F)c2n1 [Compound 377] | 100 to 1000 | < 100
4 | COc1cnc2c(N3C[C@@H](C)N[C@@H](C)C3)ccc(C(=O)Nc3cc(F)c4nc(C)cn4c3)c2n1 [Compound 205, 8-[(3R,5S)-3,5-dimethylpiperazin-1-yl]-N-{8-fluoro-2-methylimidazo[1,2-a]pyridin-6-yl}-3-methoxyquinoxaline-5-carboxamide; trifluoroacetic acid] | < 100 | < 100
5 | Cc1cn2cc(NC(=O)c3ccc(N4CCNC5(CCOCC5)C4)c4nccnc34)cc(F)c2n1 [Compound 374] | 100 to 1000 | < 100
6 | Cc1nc(NC(=O)c2ccc(N3CCNCC3)c3ccnnc23)cc2cn(C)nc12 [Compound 178, N-{2,7-dimethylpyrazolo[3,4-c]pyridin-5-yl}-5-(piperazin-1-yl)cinnoline-8-carboxamide] | 100 to 1000 | < 100
7 | CCc1cc(NC(=O)c2ccc(N3CCNCC3)c3ccnnc23)nn2cc(C)nc12 [Compound 168, N-{8-ethyl-2-methylimidazo[1,2-b]pyridazin-6-yl}-5-(piperazin-1-yl)cinnoline-8-carboxamide trifluoroacetic acid salt] | 1000 to 10000 | 100 to 1000
8 | CCNC1CCN(c2ccc(C(=O)Nc3cc(F)c4nc(C)cn4c3)c3nccnc23)CC1 [Compound 191, 8-[4-(ethylamino)piperidin-1-yl]-N-{8-fluoro-2-methylimidazo[1,2-a]pyridin-6-yl}quinoxaline-5-carboxamide] | < 100 | < 100
9 | CN[C@@H]1CCN(c2ccc(C(=O)Nc3cc(F)c4nc(C)cn4c3)c3nc(OC)cnc23)C1 [Compound 204, (R)—N-{8-fluoro-2-methylimidazo[1,2-a]pyridin-6-yl}-3-methoxy-8-[3-(methylamino)pyrrolidin-1-yl]quinoxaline-5-carboxamide; trifluoroacetic acid] | 100 to 1000 | < 100
10 | Cc1cn2cc(NC(=O)c3ccc(N4C[C@@H](C)N[C@@H](C)C4)c4nccnc34)cc(F)c2n1 [Compound 186, 8-(3,5-dimethylpiperazin-1-yl)-N-{8-fluoro-2-methylimidazo[1,2-a]pyridin-6-yl}quinoxaline-5-carboxamide] | < 100 | < 100
11 | Cc1cn2cc(NC(=O)c3ccc(N4C[C@@H](C)N[C@@H](C)C4)c4ccnnc34)nc(C)c2n1 [Compound 172, N-{2,8-dimethylimidazo[1,2-a]pyrazin-6-yl}-5-[(3R,5S)-3,5-dimethylpiperazin-1-yl]cinnoline-8-carboxamide] | < 100 | < 100
12 | Cc1cnc2c(N3C[C@@H](C)N[C@@H](C)C3)ccc(C(=O)Nc3cc(F)c4nc(C)cn4c3)c2n1 [Compound 216, 8-((3R,5S)-3,5-dimethylpiperazin-1-yl)-N-{8-fluoro-2-methylimidazo[1,2-a]pyridin-6-yl}-3-methylquinoxaline-5-carboxamide] | < 100 | < 100
13 | CNC1CCN(c2ccc(C(=O)Nc3cc(F)c4nc(C)cn4c3)c3nc(OC)cnc23)C1 (stereo not drawn) [Compound 202, N-{8-fluoro-2-methylimidazo[1,2-a]pyridin-6-yl}-3-methoxy-8-[3-(methylamino)pyrrolidin-1-yl]quinoxaline-5-carboxamide; bis(trifluoroacetic acid)] | < 100 | < 100
14 | Cc1cn2cc(NC(=O)c3ccc(C4CCN(C)CC4)c4ccnnc34)cc(F)c2n1 [Compound 140] | < 100 | < 100

More lines, now with the values ahead:

Row | IC50 [1] [nM] | IC50 [2] [nM] | SMILES
15 | < 100 | < 100 | Cc1cn2cc(NC(=O)c3ccc(N4CCN5CCC[C@H]5C4)c4ccnnc34)cc(F)c2n1 [Compound 154]
16 | < 100 | < 100 | Cc1ccc2c(N3CCNCC3)ccc(C(=O)Nc3cc(F)c4nc(C)cn4c3)c2n1 [Compound 162, N-{8-fluoro-2-methylimidazo[1,2-a]pyridin-6-yl}-2-methyl-5-(piperazin-1-yl)quinoline-8-carboxam-ide, trifluoroacetic acid]
17 | < 100 | < 100 | Cc1cn2cc(NC(=O)c3ccc(N4CCN[C@H](C)C4)c4ccnnc34)cc(F)c2n1 [Compound 146]
18 | < 100 | < 100 | Cc1cn2cc(NC(=O)c3ccc(N4CCNCC4)c4cccnc34)cc(F)c2n1 [Compound 165, N-{8-fluoro-2-methylimidazo[1,2-a]pyridin-6-yl}-5-(piperazin-1-yl)quinoline-8-carboxamide]
19 | < 100 | < 100 | Cc1ccc2c(N3CCC(N(C)C)CC3)ccc(C(=O)Nc3cc(F)c4nc(C)cn4c3)c2n1 [Compound 215, 5-[4-(dimethylamino)piperidin-1-yl]-N-{8-fluoro-2-methylimidazo[1,2-a]pyridin-6-yl}-2-methylquinoline-8-carboxamide]
20 | < 100 | < 100 | Cc1cn2cc(NC(=O)c3ccc(N4CCN5CCC[C@@H]5C4)c4ccnnc34)cc(F)c2n1 [Compound 153]
21 | 1000 to 10000 | 100 to 1000 | CNCC1CCN(c2ccc(C(=O)Nc3cc(F)c4nc(C)cn4c3)c3nccnc23)CC1 [Compound 192, N-{8-fluoro-2-methylimidazo[1,2-a]pyridin-6-yl}-8-{4-[(methylamino)methyl]piperidin-1-yl}quinoxaline-5-carboxamide trifluoroacetate]
22 | < 100 | < 100 | COc1ccc2c(N3CCNCC3)ccc(C(=O)Nc3cc(F)c4nc(C)cn4c3)c2n1 [Compound 169, N-{8-fluoro-2-methylimidazo[1,2-a]pyridin-6-yl}-2-methoxy-5-(piperazin-1-yl)quinoline-8-carboxamide]
23 | < 100 | < 100 | COc1cc2c(N3CCNCC3)ccc(C(=O)Nc3cc(F)c4nc(C)cn4c3)c2nn1 [Compound 183, N-{8-fluoro-2-methylimidazo[1,2-a]pyridin-6-yl}-3-methoxy-5-(piperazin-1-yl)cinnoline-8-carboxamide]
24 | 1000 to 10000 | 100 to 1000 | Cc1cn2cc(NC(=O)c3ccc(N4CCNC5(COC5)C4)c4nccnc34)cc(F)c2n1 [Compound 372]
25 | > 10000 | > 10000 | Cc1cn2cc(NC(=O)c3ccc(N4CCNCC4)c4nnccc34)cc(F)c2n1 [Compound 166, N-(8-fluoro-2-methylimidazo[1,2-a]pyridin-6-yl)-8-(piperazin-1-yl)cinnoline-5-carboxamide 2,2,2-trifluoroacetate]
26 | 1000 to 10000 | < 100 | CC(=O)c1cc(NC(=O)c2ccc(N3CCNCC3)c3ccnnc23)cn2cc(C)nc12 [Compound 163, N-{8-acetyl-2-methylimidazo[1,2-a]pyridin-6-yl}-5-(piperazin-1-yl)cinnoline-8-carboxamide]
27 | < 100 | < 100 | Cc1cn2cc(NC(=O)c3ccc(N4CCNC5(CC5)C4)c4nccnc34)cc(F)c2n1 [Compound 218, 8-{4,7-diazaspiro[2.5]octan-7-yl}-N-{8-fluoro-2-methylimidazo[1,2-a]pyridin-6-yl}quinoxaline-5-carboxamide]
